This note sets out measurements from ChEMBL document CHEMBL2380201, “Synthesis, biological activity and resistance to proteolytic digestion of new cyclic dermorphin/deltorphin analogues” (Eur J Med Chem, 2013).

Molecules are shown by their SMILES. Calls of active or inactive are those of the source. The calls are words filed in the database; no cut-off is given here. Numbered stars: 1 amine (or outer) side, 2 acyl side, 3 side chain; on linkers, the order of the positions; unused ones are H or OH. Bridge positions count the residues as written; N and C are the ends. Square brackets hold non-standard residues; d marks the D form. Peptide text beside a SMILES is read from it. ξ: configuration not given here. Orn = NCCC[C@H](N)C(=O)O; Dap = NC[C@H](N)C(=O)O; ξOrn = NCCCC(N)C(=O)O; CO = O=C([*:1])[*:2]; ξDap = NCC(N)C(=O)O

The subject of one data set is chymotrypsin. The data set can be described thus: Proteolytic stability of the compound in ammonium bicarbonate buffer assessed as hydrolysis at pH 8 at 10^-4 M after 1.5 hrs by ESI-MS spectrophotometry in presence of chymotrypsin. The format is ADME. The conditions noted are these: read-out: Drug degradation.
Data set [1] relates to Mus musculus. The data set can be described thus: Antinociceptive activity in BALB/c mouse assessed as increase in paw withdrawal latency at 1 mg/kg, ip measured 30 mins post dose by hot plate test. Type of data set: functional, organism-based. Also on record: dose 1 mg/kg.
Data set [2] concerns Mus musculus. The data set can be described thus: Antinociceptive activity in BALB/c mouse assessed as increase in paw withdrawal latency at 0.1 mg/kg, sc measured 30 mins post dose by hot plate test. The format is functional, organism-based. Also noted: dose 0.1 mg/kg.
The nature of data set [3]: Proteolytic stability of the compound in ammonium bicarbonate buffer assessed as hydrolysis at pH 8 at 10^-4 M after 12 hrs by ESI-MS spectrophotometry in presence of chymotrypsin. Type of data set: ADME. The note with it: isolated protein, pH 8, 12 h, 100 µM.
Data set [4] concerns Mus musculus. Nature of the data set: Antinociceptive activity in BALB/c mouse assessed as increase in paw withdrawal latency at 1 mg/kg, iv measured 30 mins post dose by hot plate test. The format is functional, organism-based. Also noted: dose 1 mg/kg. On the technique in general: In hot-plate and tail-flick tests a longer latency is read as antinociception.
Data set [5] is described as follows: Proteolytic stability of the compound in ammonium bicarbonate buffer assessed as hydrolysis at pH 8 at 10^-4 M after 12 hrs by ESI-MS spectrophotometry in presence […]. Type of data set: ADME. The conditions noted are these: isolated protein, pH 8, 12 h, 100 µM.
A short description of data set [6]: Proteolytic stability of the compound in ammonium bicarbonate buffer assessed as intact cyclic fragment at pH 8 at 10^-4 M after 2.5 hrs by ESI-MS spectrophotometry in presence […]. The format is ADME. The note with it: isolated protein, pH 8, 2.5 h, 100 µM.
For data set [7], the system named is Mus musculus. Nature of the data set: Antinociceptive activity in BALB/c mouse at 1 mg/kg, iv measured 30 to 90 mins post dose by tail flick test relative to vehicle-treated control. The format is functional.
Data set [8] deals with Mus musculus. Nature of the data set: Antinociceptive activity in BALB/c mouse at 2 mg/kg, iv measured 30 mins post dose by tail flick test relative to vehicle-treated control. Type of data set: functional.
The subject of data set [9] is Mus musculus. Nature of the data set: Antinociceptive activity in BALB/c mouse at 0.5 mg/kg, iv measured 30 to 90 mins post dose by tail flick test relative to vehicle-treated control. Type of data set: functional.
For data set [10], the system named is Mus musculus. The data set can be described thus: Antinociceptive activity in BALB/c mouse at 4 mg/kg, iv up to 120 mins by tail flick test. Type of data set: functional, organism-based. Also noted: dose 4 mg/kg.
Data set [11] can be described thus: Proteolytic stability of the compound in ammonium bicarbonate buffer assessed as hydrolysis at pH 8 at 10^-4 M after 2.5 hrs by ESI-MS spectrophotometry in presence […]. Type of data set: ADME. The conditions noted are these: isolated protein, pH 8, 2.5 h, 100 µM.
Data set [12] can be described thus: Proteolytic stability of the compound in ammonium bicarbonate buffer assessed as hydrolysis at pH 8 at 10^-4 M after 20 mins to 12 hrs by ESI-MS spectrophotometry in presence of chymotrypsin. The format is ADME. The conditions noted are these: isolated protein, pH 8, 100 µM.
Data set [13] is described as follows: Proteolytic stability of the compound in ammonium bicarbonate buffer assessed as hydrolysis at pH 8 at 10^-4 M after 20 mins to 12 hrs by ESI-MS spectrophotometry in presence […]. The format is ADME. The note with it: isolated protein, pH 8, 100 µM.
Data set [14] concerns Mus musculus. Nature of the data set: Antinociceptive activity in BALB/c mouse at 2 mg/kg, iv measured 15 to 180 mins post dose by tail flick test. Type of data set: functional, organism-based. Also on record: dose 2 mg/kg.
The test system of data set [15] is Mus musculus. The data set can be described thus: Antinociceptive activity in iv dosed BALB/c mouse measured 15 to 180 mins post dose by tail flick test. The format is functional, organism-based.

Turning to `NC(=O)NCCNC(=O)[C@@H]1CCCCNC(=O)NCCC[C@@H](NC(=O)[C@@H](N)Cc2ccc(O)cc2)C(=O)N[C@@H](Cc2ccccc2)C(=O)N1`, the metabolised at 1.5 h, 100 µM in the data set on chymotrypsin was less than 1%. Moreover, the result in the data set with Mus musculus [1], in the data set on Mus musculus [2] and in the data set on Mus musculus [4] was inactive. The Stability result in [3] and in [5] was “Stable” in each case.

In the case of `NC(=O)[C@@H]1CNC(=O)NCCCC[C@H](NC(=O)[C@@H](N)Cc2ccc(O)cc2)C(=O)N[C@@H](Cc2ccccc2)C(=O)N1` (H-YKF[Dap]-NH2; linker 2-4 via CO), the Stability in data set [6] was determined as 98%.

For `CN1CC[C@]23c4c5ccc(O)c4O[C@H]2[C@@H](O)C=C[C@H]3[C@H]1C5` [MORPHINE], the result in the data set on Mus musculus [7], in the data set with Mus musculus [9] and with Mus musculus [4] was inactive. This compound also returned an MPE with Mus musculus [8] of 63.1%. Also, the result in the data set with Mus musculus [10] was Active.

As to `NC(=O)NCCNC(=O)[C@@H]1CCCCNC(=O)NCCCC[C@@H](NC(=O)[C@@H](N)Cc2ccc(O)cc2)C(=O)N[C@@H](Cc2ccccc2)C(=O)N1`, the metabolised at 1.5 h, 100 µM in the data set on chymotrypsin is less than 1%. The outcome in the data set with Mus musculus [1], in the data set on Mus musculus [2] and in the data set with Mus musculus [4] was inactive. Also, the Stability entry in [3] and in data set [5] was “Stable” throughout.

Consider `CCNC(=O)[C@@H]1CCCNC(=O)NCCCC[C@@H](NC(=O)[C@@H](N)Cc2ccc(O)cc2)C(=O)N[C@@H](Cc2ccccc2)C(=O)N1`, for which, in the data set with chymotrypsin, the metabolised at 1.5 h, 100 µM was less than 1%. Moreover, the outcome in the data set on Mus musculus [1], in the data set on Mus musculus [2] and in the data set with Mus musculus [4] was inactive. The Stability result in [3] and in [5] was “Stable” each time.

As to `NC(=O)NCCNC(=O)[C@@H]1CNC(=O)NCCCC[C@@H](NC(=O)[C@@H](N)Cc2ccc(O)cc2)C(=O)N[C@@H](Cc2ccccc2)C(=O)N1`, in the data set on chymotrypsin, the metabolised at 1.5 h, 100 µM was less than 1%. Further, the result in the data set with Mus musculus [1], in the data set with Mus musculus [2] and in the data set with Mus musculus [4] was inactive. For the same compound, the Stability result in [3] and in [5] was “Stable” each time.

For the compound `NC(=O)[C@@H]1CCCCNC(=O)NCCC[C@H](NC(=O)[C@@H](N)Cc2ccc(O)cc2)C(=O)N[C@@H](Cc2ccccc2)C(=O)N1` (H-Y[Orn]FK-NH2; linker 2-4 via CO), the Stability entry in [11] was “Unstable”.

Regarding `NC(=O)NCCNC(=O)[C@@H]1CNC(=O)NCCC[C@@H](NC(=O)[C@@H](N)Cc2ccc(O)cc2)C(=O)N[C@@H](Cc2ccccc2)C(=O)N1`, the metabolised at 1.5 h, 100 µM with chymotrypsin was less than 1%. Moreover, the outcome in the data set on Mus musculus [1], in the data set with Mus musculus [2] and in the data set on Mus musculus [4] was inactive. Besides, the Stability result in data set [3] and in [5] was “Stable” throughout.

Consider `NC(=O)NCCNC(=O)[C@@H]1CCNC(=O)NCCCC[C@@H](NC(=O)[C@@H](N)Cc2ccc(O)cc2)C(=O)N[C@@H](Cc2ccccc2)C(=O)N1`, for which the Stability result in [12] and in data set [13] was “Stable” each time. Also, the metabolised at 1.5 h, 100 µM in the data set on chymotrypsin was less than 1%. The MPE with Mus musculus [7] is listed as 54.7%; in the data set on Mus musculus [9], 41.8%. The outcome in the data set with Mus musculus [1] and in the data set with Mus musculus [2] was inactive. In addition, the result in the data set with Mus musculus [14], in the data set with Mus musculus [4] and with Mus musculus [10] was Active. Moreover, in the data set on Mus musculus [15], the Activity result was “Dose-dependent effect”.

Regarding `NCCNC(=O)[C@@H]1CNC(=O)NCCCC[C@@H](NC(=O)[C@@H](N)Cc2ccc(O)cc2)C(=O)N[C@@H](Cc2ccccc2)C(=O)N1`, the metabolised at 1.5 h, 100 µM with chymotrypsin is less than 1%. Besides, the outcome in the data set on Mus musculus [1], with Mus musculus [2] and in the data set with Mus musculus [4] was inactive. Besides, the Stability entry in data set [3] and in [5] was “Stable” each time.

`NC(=O)NCCNC(=O)[C@@H]1CCNC(=O)NCCC[C@@H](NC(=O)[C@@H](N)Cc2ccc(O)cc2)C(=O)N[C@@H](Cc2ccccc2)C(=O)N1`: in the data set with chymotrypsin, the metabolised at 1.5 h, 100 µM was less than 1%. For the same compound, the outcome in the data set on Mus musculus [1], with Mus musculus [2] and in the data set on Mus musculus [4] was inactive. For the same compound, the Stability result in data set [3] and in data set [5] was “Stable” in each case.

In the case of `NC(=O)NCCNC(=O)[C@@H]1CCCNC(=O)NCCC[C@@H](NC(=O)[C@@H](N)Cc2ccc(O)cc2)C(=O)N[C@@H](Cc2ccccc2)C(=O)N1`, the metabolised at 1.5 h, 100 µM in the data set on chymotrypsin is less than 1%. In addition, the outcome with Mus musculus [1], in the data set with Mus musculus [2] and in the data set on Mus musculus [4] was inactive. Besides, the Stability entry in data set [3] and in data set [5] was “Stable” each time.

For `NC(=O)C1CNC(=O)NCCCC(NC(=O)[C@@H](N)Cc2ccc(O)cc2)C(=O)N[C@@H](Cc2ccccc2)C(=O)N1` (some centres undefined) (H-Y[ξOrn]F[ξDap]-NH2; linker 2-4 via CO), the Stability entry in [11] was “Unstable”.

With `NC(=O)[C@@H]1CCCCNC(=O)NC[C@H](NC(=O)[C@@H](N)Cc2ccc(O)cc2)C(=O)N[C@@H](Cc2ccccc2)C(=O)N1` (H-Y[Dap]FK-NH2; linker 2-4 via CO), the Stability in data set [6] came to 98%.

For `NC(=O)NCCNC(=O)[C@@H]1CCCNC(=O)NCCCC[C@@H](NC(=O)[C@@H](N)Cc2ccc(O)cc2)C(=O)N[C@@H](Cc2ccccc2)C(=O)N1`, in the data set on chymotrypsin, the metabolised at 1.5 h, 100 µM is less than 1%. In addition, the outcome in the data set with Mus musculus [1], in the data set on Mus musculus [2] and with Mus musculus [4] was inactive. Further, the Stability entry in data set [3] and in data set [5] was “Stable” throughout.
